Like-named read-outs stand apart in the source and are kept apart here.
How the values were obtained:
[1] = Muscle stimulation test on rabbits; type: in vivo, New Zealand rabbits
Source text: The inventors have conducted the muscle stimulation test of Compounds Ia and II on rabbits. The test is as follows. Eight New Zealand rabbits were divided into three groups. Two groups, containing three rabbits per group, were administrated with Compound Ia and Compound II, respectively. The third group, containing two rabbits, was used as a negative control group. The rabbits were intramuscularly injected with high concentrations of the compounds into the left quadriceps and with low concentration into the right quadriceps. The negative control group was injected with an equal concentration of sodium chloride into the quadriceps of both sides. Each quadriceps was administrated with 1.0 mL once a day for three consecutive days. One or two rabbits from each group were anatomized after 48 hours of the injection. The remaining rabbits were anatomized after the end of the two-week recovery period.

[2] = type: physicochemical; conditions: for content in aqueous injection solution: 37° C.
Source text: (§1) Compared to Compound II, Compound I has better stability in aqueous solution (see Table 2) and in the solid state (See Table 3). Thus Compound I can be stored without freezing or special treatment.

[3] = Solid state stability, 72 hours in storage at various temperatures; type: physicochemical
Source text: as §1

[4] = pH of aqueous solution; type: physicochemical
[5] = system: Excrement Enterococcus; assay: Vitro bacteriostasis, two-fold agar dilution method; type: cell-based
Procedure: (§2) Vitro bacteriostasis experiments of Compounds Ia, Ib, and Ic were performed using the two-fold agar dilution method.

[6] = system: Haemophilus Influenzae; assay: as above; type: cell-based
Procedure: as §2

[7] = system: Moraxella Catarrhalis; assay: as above; type: cell-based
Procedure: as §2

[8] = system: Pneumonia Chain Coccus; assay: as above; type: cell-based
Procedure: as §2

[9] = system: Shigella; assay: as above; type: cell-based
Procedure: as §2

[10] = system: Type A Chain Coccus; assay: as above; type: cell-based
Procedure: as §2

[11] = system: Type B Chain Coccus; assay: as above; type: cell-based
Procedure: as §2

[12] = type: in vivo
Procedure: The inventors conducted preliminary pharmacokinetic study of Compound Ia on Beagle dogs. The Beagle dogs were allowed to drink water freely but not to eat food for 16 hours before and 4 hours after the intravenous injection of 50 mg/kg.bw of the compound. Intravenous blood sampling took place at 0, 0.083, 0.17, 0.25, 0.5, 1, 1.5, 2, 3, 4, 6, 9, 12 hours, respectively, after the injection, each blood sample being 3 mL. Thereafter the dogs were given the drugs every other week and blood samples were taken according to the above manner. The blood samples were added to the centrifuge tubes containing heparin and thoroughly mixed by centrifuging at 4000 rpm for 10 minutes. The blood plasma was separated and an abstraction agent (methanol/ethyl acetate 3:2 V/V) was added to and mixed with it by centrifuging at 10000 rpm for 10 minutes. The top, clear liquid, 20 μL, was taken and analyzed by HPLC.

[13] = Acute toxicity tests on rats; type: in vivo; conditions: intravenous injection
[14] = system: Excrement Enterococcus; assay: In-vivo antibacterial activity (protection of rats); conditions: against Excrement Enterococcus
[15] = system: Pneumonia Chain Coccus; assay: as above; conditions: against Pneumonia Chain Coccus
[16] = system: Moraxella Catarrhalis; assay: as above; conditions: against Moraxella Catarrhalis
[17] = Solubility
[18] = healthy Beagle dogs, single intravenous injection 50 mg/kg.bw

| SMILES | content in aqueous injection solution ([2]; 0 hr) [%] | content in aqueous injection solution ([2]; 0.2 hr) [%] | content in aqueous injection solution ([2]; 1 hr) [%] | content in aqueous injection solution ([2]; 2 hr) [%] | content in aqueous injection solution ([2]; 3 hr) [%] | content in aqueous injection solution ([2]; 4 hr) [%] | content after 72 hours in storage ([3]; 10° C.) [%] | content after 72 hours in storage ([3]; 40° C.) [%] | content after 72 hours in storage ([3]; 60° C.) [%] | content after 72 hours in storage ([3]; −5° C.) [%] | pH ([4]; concentration not given) | MIC90 [5] [µg/mL] | MIC90 [6] [µg/mL] | MIC90 [7] [µg/mL] | MIC90 [8] [µg/mL] | MIC90 [9] [µg/mL] | MIC90 [10] [µg/mL] | MIC90 [11] [µg/mL] | t1/2β [12, 18] [min] | LD50 [13] [mg/kg] | other results |
| --- | --- | --- | --- | --- | --- | --- | --- | --- | --- | --- | --- | --- | --- | --- | --- | --- | --- | --- | --- | --- | --- |
| CC(C)N=C(NC(C)C)SCC(=O)NC1C(=O)N2C(C(=O)O)=C(CSc3nc(=O)c(=O)[nH]n3C)CSC12 (stereo not drawn) [Compound II, 7-(α-((N,N′-diisopropylamidino)thio)acetylamino)-3-(((1,2,5,6-tetrahydro-2-methyl-5,6-dioxo-1,2,4-triazin-3-yl)thio)methyl) cephalosporanic acid, reference compound] | 98.50 | 94.33 | 84.26 | 77.04 | 71.06 | 66.48 | 97.9 | 96.3 | 92.75 | 98.0 | 3.2 | – | – | – | – | – | – | – | – | – | irritation (general statement) ([1]; rabbit, in vivo): irritates muscles and blood vessels; muscle irritation observed ([1]; rabbit, in vivo): various levels of intense irritation; stability (general statement) [2]: low stability; pH value of saturated aqueous solution ([4]; saturated aqueous solution): 3.2 |
| CC(C)N=C(NC(C)C)SCC(=O)NC1C(=O)N2C(C(=O)[O-])=C(CSc3nc(=O)c(=O)[nH]n3C)CSC12.[Na+] (stereo not drawn) [Compound Ia, 7-(α-((N,N′-diisopropylamidino)thio)acetylamino)-3-(((1,2,5,6-tetrahydro-2-methyl-5,6-dioxo-1,2,4-triazin-3-yl)thio)methyl) cephalosporanic acid mono sodium salt] | 98.60 | 98.60 | 97.98 | 97.79 | 97.24 | 97.13 | 96.9 | 96.6 | 96.4 | 97.0 | 7.3 | 8 | 0.5 | 1 | 0.125 | 4 | 0.5 | 0.0625 | 155 ± 2.4 | 1747.6 | AUC [12, 18]: 108.29 ± 18.17 µg·h/mL; ClB [12, 18]: 7.83 ± 1.5 mL/min/kg; Cmax [12, 18]: 116.35 ± 12.06 µg/mL; V1 [12, 18]: 0.25 ± 0.07 L/kg; VB [12, 18]: 1.61 ± 0.30 L/kg; t1/2α [12, 18]: 37.8 ± 7.2 min; drug concentration after 12 hours of the administration ([12]; healthy Beagle dogs, single intravenous injection 50 mg/kg.bw, 12 hours): 0.39 ± 0.09 µg/mL; protection for rats [14]: excellent protection; protection for rats [15]: excellent protection; protection for rats [16]: excellent protection; muscle irritation observed ([1]; rabbits, intramuscular into quadriceps, 1.0 mL once a day for three days, 48 hours and 14 days after last administration): slight irritation; pH ([4]; concentration 0.1 g/mL): 7.3; solubility in acetone ([17]; acetone): not readily soluble; solubility in anhydrous ethanol ([17]; anhydrous ethanol): not readily soluble; solubility in methanol ([17]; methanol): readily soluble; solubility in water ([17]; water): readily soluble |
| CC(C)N=C(NC(C)C)SCC(=O)NC1C(=O)N2C(C(=O)[O-])=C(CSc3nc(=O)c(=O)[nH]n3C)CSC12.CC(C)N=C(NC(C)C)SCC(=O)NC1C(=O)N2C(C(=O)[O-])=C(CSc3nc(=O)c(=O)[nH]n3C)CSC12.[Na+].[Na+] (stereo not drawn) [Compound Ib, disodium 7-(α-((N,N′-diisopropylamidino)thio)acetylamino)-3-(((1,2,5,6-tetrahydro-2-methyl-5,6-dioxo-1,2,4-triazin-3-yl)thio)methyl) cephalosporanate] | 98.80 | 98.54 | 97.14 | 96.66 | 95.21 | 94.30 | – | – | – | – | – | 4 | 0.5 | 0.5 | 0.5 | 4 | 0.1 | 0.0125 | – | – | pH ([4]; concentration 0.1 g/mL): 10.02 |
| CC(C)N=C(NC(C)C)SCC(=O)NC1C(=O)N2C(C(=O)[O-])=C(CSc3nc(=O)c(=O)[nH]n3C)CSC12.[K+] (stereo not drawn) [Compound Ic, 7-(α-((N,N′-diisopropylamidino)thio)acetylamino)-3-(((1,2,5,6-tetrahydro-2-methyl-5,6-dioxo-1,2,4-triazin-3-yl)thio)methyl) cephalosporanic acid monopotassium salt] | – | – | – | – | – | – | – | – | – | – | – | 8 | 0.5 | 0.5 | 0.5 | 4 | 0.1 | 0.0156 | – | – | – |
| CC(=O)OCC1=C(C(=O)O)N2C(=O)[C@@H](NC(=O)CSC(=NC(C)C)NC(C)C)[C@H]2SC1 [cefathiamidine, Cefathiamidine, reference compound] | – | – | – | – | – | – | – | – | – | – | – | – | – | – | – | – | – | – | 39 ± 1.8 | 824.2 | biological half-life in blood ([12]; Beagle dogs, preliminary pharmacokinetic study): 0.65 hours |

Reference: US20140128359A1, “N-Heterocyclic Substituent-Containing Antibiotic, Preparation and Use Thereof” (priority 2012, published 2014)
